{"source": "patent US6111080A", "about": "“Monoclonal antibodies” (Washington University, priority 1993, dated 2000)", "test_system": "RGD-binding receptor on PMN (B6H12 antigen, heterodimer of 140 kd and 105 kd)", "assay": "Cytochrome c-RGDS binding assay (inhibition of 125I-cc-RGDS specific binding to PMN)", "set-up": "species or system human", "conditions": "unlabelled inhibitor 500 μg/ml; 40 μg 125I-cc-RGDS, 1.0 × 10^6 PMN, 5,000 units catalase in 1 ml, 30 min at 37° C.; relative to cc-C", "procedure": "Cytochrome c-RGDS was radioiodinated by chloroglycoluril [Markwell and Fox, Biochemistry 17, 4807-4817 (1978)] for 15 min at 0° C. PMN (5.0×10^5) in HBSS^++ -1% OVA were incubated with 10 μg of radiolabelled cc-RGDS in the presence of 5K U/ml of catalase and 293 μg of unlabelled cc-C in a final volume of 250 μl. The reaction mixtures were incubated in 1.5 ml Eppendorf tubes for 30 min at 37° C. The mixtures were overlayered on Versilube (General Electric) and centrifuged at 12,000×g to assess pellet associated radioactivity. Specific binding was determined by subtracting the radioactivity bound in the presence of […] of unlabelled cc-RGDS from the total radioactivity. Unlabelled cc-C was included in the reaction to control for any binding due to cytochrome c and not specifically due to the RGDS moiety. For inhibition tests, the various inhibitors were included in the reaction at the indicated concentrations. Antibodies were incubated with the PMN at the indicated concentrations for 15 min at room temperature prior to the addition of the other reactants.\n^a PMN (1.0 × 10^6) were incubated with 40 μg of ^12\nIcc-RGDS with the indicated concentrations of unlabelled inhibitors in th\npresence of 5,000 units of catalase in 1 ml for 30 min at 37° C.\nThe PMN were centrifuged through oil and the pelletassociated counts\nassessed. […]\n^b Calculated from the mean cpm's. […]"}
{"substance": "GRGDSC", "values": [{"measurement": "% I (percent inhibition of cc-RGDS specific binding to PMN)", "result": 79.6, "unit": "%"}]}
